One series has as its system HGF/MET system. Kind of series: Phospho-MET ELISA. The arrangement: key: − indicates that the compound failed to significantly augment MET phosphorylation; + indicates maximum potency at or above 100 nM; ++ indicates maximum potency at or above 10 nM; +++ indicates maximum potency at or above 1 nM; ++++ indicates maximum potency at or above 0.1 nM. Type of series: cell-based. The settings on record: HEK293 cells; with 1 ng/mL recombinant HGF; 15 minutes; augmentation of MET phosphorylation (pMET ELISA). On the procedure: Compounds were screened for potency towards the HGF/MET system using phospho-MET (pMET) ELISA kits (Cell Signaling). pMET levels were detected in samples having low (1 ng/mL) and high (10 ng/mL) concentrations of HGF.
HEK293 cells were prepared by passage into 6-well multi-plates and grown at 37° C. at 5% CO2 in DMEM+10% FBS until approximately 90% confluent. Cells were then starved for at least 8 hours in serum-free growth media.
Exemplary compounds were prepared in DMEM+0.1% FBS, diluted and added to treatment media with 1 ng/mL recombinant HGF protein (R&D Systems). Cells were incubated in triplicate at 37° C. and 5% CO2 for 15 minutes. Samples were then treated with 180 μL ice-cold RIPA (radioimmunoprecipitation assay) buffer and cells were lysed on ice for 15 minutes. Lysates were cleared by centrifugation at 16,000-g for 15 minutes and the supernatant was retained. Samples were normalized using a BCA assay of lysates to determine protein concentrations across the samples.
Between 50 and 100 μg total protein lysate was loaded into ELISA wells in pMET Sandwich ELISA kit (Cell Signaling Catalog #7227C), ensuring equal protein load in each well. The ELISA was processed according to manufacturer's instructions. After color developed, absorbance was read on an optical plate reader at 450 nm.
Potency measurements were determined using peak efficacy by scaling test compound dose treatments along a scale of 1-10 between 1 ng/mL and 10 ng/mL HGF doses according to the following formula: […]
where y is the normalized data-point, x is the raw data point, A is the mean HGF at 1 ng/mL, and B is the mean HGF at 10 ng/mL.
In general terms: ELISA stands for enzyme-linked immunosorbent assay.

The subject of a further series is MDCK cells. As to the kind of experiment: Cell scattering behavior assay. The format is cell-based. Further details: key: − indicates that the compound failed to significantly promote cell scattering behavior; + indicates maximum potency at or above 100 nM; ++ indicates maximum potency at or above 10 nM; +++ indicates maximum potency at or above 1 nM; ++++ indicates maximum potency at or above 0.1 nM. To be noted: with 5 ng/mL HGF, 24 hours, normalized particle count compared to HGF treatment alone. As for the experimental part: MDCK cells were grown under normal conditions and observed to spontaneously form tight colonies as they proliferate. MDCK cells respond to HGF treatment by moving away from each other (scattering), which is quantified to assess the amount of HGF/MET activation in the cell population. In this experiment, MDCK cells were plated in a 96-well format, treated with HGF and exemplary compounds, fluorescently stained, imaged in large fields, and scattering behavior was quantified. Quantification was determined by analyzing the number of continuous groups of cells compared to the total stained area imaged (normalized particle counts).
MDCK cells were plated at low density in black-walled imaging plates and allowed to attach overnight at 37° C. and 5% CO2 in DMEM+10% FBS. Cells were then starved to 2 hours in DMEM without FBS (“starve media”). Samples containing exemplary compounds were prepared in DMEM without FBS and included 5 ng/mL HGF protein (“treatment media”). A control curve was also prepared for each plate using HGF concentrations of 0, 5, 10, and 20 ng/mL. Starve media was replaced with treatment media and cells were incubated for 24 hours at 37° C. and 5% CO2.
After incubation, cells were fixed by replacing treatment media with cold ethanol and incubating for 20 minutes at 4° C. Cells were then rehydrated by washing with PBS and then with stain solution (fluorescent wheat germ agglutinin; WGA488 at 20 μg/mL in PBS). Cells were incubated with stain solution 30 minutes at room temperature after which stain solution was replaced with fresh PBS.
Fields of cells were imaged using an iCyte high content imager in the green wavelength. Images were converted to binary and analyzed for particle size and particle count. For the purpose of analysis, an individual cell touching no other cells or separated colonies of cells were identified as particles, and particle counts were normalized by the total signal area to account for differences in cell number. […] Compound potency was assessed by statistical increase in normalized particle count compared to HGF treatment alone.

Series [1] can be described thus: Parallel artificial membrane permeability assay (PAMPA). The settings on record: PBS, room temperature for 5 hours, 200 uM in donor well. The format is in vitro ADME. On the procedure:
Bioavailable drugs must permeate the cellular membranes of the lining of the digestive tract. To estimate the penetrability of exemplary compounds, the in vitro parallel artificial membrane permeability assay (PAMPA) was utilized.
Test compounds must have a standard curve in the final read plate to determine partitioned concentration of each drug. A 6-point standard curve was prepared for each compound from 0 to 200 μM in phosphate-buffered saline (PBS).
Test compound solution (300 μL in PBS) was added to the donor (bottom) well of the PAMPA plate in 5 replicates and PBS vehicle (200 μL) was added to the acceptor (top) wells of appropriate wells to match the loading of the donor plate. The bottom and top of the PAMPA plates were then sandwiched together. The PAMPA plates were then incubated at room temperature for 5 hours. After incubation, 150 μL of donor solution was added to a UV compatible plate containing the corresponding standard curve. 150 μL of acceptor well solution was added adjacent to the corresponding standard curve and donor well samples for that compound. The plate was then read using a UV plate reader.
Permeability and membrane retention were then calculated based on the following formulas:
where: • A=filter area (0.3 cm^2); • VD=donor well volume (0.3 mL); • VA=acceptor well volume (0.2 mL); • t=incubation time (seconds); • CA(t)=compound concentration in acceptor well at time t; • CD(t)=compound concentration in donor well at time t; and
where: • CD(t), VD, CA(t), and VA are as defined for equation 1, and • C0=initial concentration in donor well (200 uM).
For orientation: The PAMPA barrier holds no transporters, so it reflects passive diffusion.

Series [2] has as its system hepatocyte (HepG2) cell cultures. Kind of series: Cytotoxicity assay (LDH release). The format is cell-based. To be noted: HepG2 cells, 48 hours, 0.1 to 100 μM. As for the experimental part: This experiment was designed to obtain a preliminary assessment of cytotoxicity.
HepG2 cells were plated in 96-well cell culture plates and allowed to attach overnight at 37° C., 5% CO2 in EMEM+10% FBS. Treatments were made in complete media (EMEM+10% FBS) and included a dilution series of test compounds from 0.1 to 100 μM. Known cytotoxin cerivastatin was used as a positive assay control and prepared at a final concentration of 0.5 μM.
Growth media was replaced with treatment media (EMEM+10% FBS containing test compound dissolved in DMSO) and cells were incubated with test compounds for 48 hours. At the end of the incubation period, supernatant media from each well was transferred to a new plate and LDH assay working solution was added. LDH assay solution undergoes a colorimetric reaction in proportion to the amount of lactate dehydrogenase (an intracellular protein that was only found in the media in the presence of lysed cells) in the media. Color reaction was quantified by measurement of absorbance at a wavelength of 490 nm.
The signal range of the assay was determined by no manipulation in a negative control treatment and full lysis of all cells in a lysis control sample. Compounds that increase the level of cytotoxicity more than 20% above negative control samples were considered cytotoxic in this assay.

Series [3] concerns Rat primary cortical neuron cultures. As to the kind of experiment: Protection from neurotoxicity in vitro (Cell Titer-Glo viability). To be noted: for Protection of cell viability, statistical significance vs. insult control: Positive Control (1 uM); for Insult effect (% viability vs vehicle): 24 hours, with HGF 5 ng/ml. Type of series: cell-based. As for the experimental part: HGF/MET signaling activation is expected to protect cells, including neurons, from cell death. […] Hydrogen peroxide (H2O2) treatment produces toxic oxidative stress. Bacteria-derived lipopolysaccharide (LPS) treatment induces inflammatory cell death. Treatment with excess glutamate (Glut) produces excitotoxicity in neuron cultures. Treatment with 1-methyl-4-phenylpyridinium (MPP^+) causes cell death by inhibition of mitochondrial function.
Rat primary cortical neuron cultures were grown at 37° C., 5% CO2 in Complete Neurobasal Medium supplemented with B27/GDNF/BDNF containing 10% FBS until maturity and were then seeded in 384-well plate at 5,000 cells/well. Cultures were then treated for 15 minutes with 1 uM, 100 nM, 10 nM, 1 nM, or 0.1 nM of compound 1a. Cells were then subjected to individual conditional insults for 24 hours at the following concentrations: H2O2 at 1 uM, LPS at 1 uM, glutamate at 25 uM, MPP+ at 500 uM. All treatments contained recombinant human HGF (R&D Systems) at a concentration of 5 ng/ml.
To quantify neuroprotection, cell viability was measured with the Cell Titer-Glo Luminescent Cell Viability Assay (Promega, Cat #G7571). Data was normalized to DMSO+HGF control set at 100% cell viability. Statistical analyses for each group (n=4) were performed using one-way ANOVA with Tukey's Multiple comparison test.
Data is reported as statistical significance vs. insult control, with NS=not significant, +=p<0.05, ++=p<0.01, and +++=p<0.001.

The subject of series [4] is scopolamine-induced cognitive impairment. As to the kind of experiment: Scopolamine-induced cognitive impairment, T-maze spontaneous alternation task. The format is in vivo, CD-1 mice. The settings on record: mice; scopolamine only, 0.89 mg/kg. The source says:
Mild cognitive impairment can be assessed in rodent models via delivery of various compounds that interfere with normal neurotransmitter signaling. Scopolamine is a compound that is well-known to antagonize muscarinic acetylcholine receptors, nicotinic receptors, as well as glutamatergic receptors such as NMDA receptors. Thus, delivery of scopolamine results in cognitive impairment, which can be assessed in a variety of cognitive tasks. Positive modulation of the HGF/MET system can promote NMDA receptor activation and results in pro-cognitive effects. Two test compounds, Compound 1a and Compound 5a, were evaluated for their ability to protect against scopolamine-induced cognitive impairment.
In this study, mild cognitive impairment was modeled in otherwise healthy male CD-1 mice (4-5 weeks old at study start) by acute delivery of 0.89 mg/kg scopolamine (dissolved in saline). Test compounds were administered via oral gavage 0.5 hours prior to scopolamine exposure, and cognitive performance was assessed in the T-maze spontaneous alternation task 0.5 hours after scopolamine exposure (1 hour following test compound exposure). The experimental protocol consisted of one single session, which started with 1 “forced-choice” trial, followed by 14 “free-choice” trials. In the first “forced-choice” trial, the animal was confined 5 seconds in the start arm and was then released while either the left or right goal arm was blocked by a horizontal door. After the mouse entered the open goal arm and returned to the start position, the left or right goal door was opened, and the animal was allowed to choose freely between the left and right goal arm (“free choice trials”). The animal was considered to have entered into an arm when it placed its four paws in the arm. Normal animals will choose to explore the previously-unexplored arm, which is recorded as a spontaneous alternation. […] The session was terminated, and the animal was removed from the maze as soon as 14 free-choice trials had been performed or 10 min had elapsed, whichever event occurred first.
This percentage was defined as entry into a different goal arm of the T maze over successive trials (e.g., left-right-left-right) and was calculated using the formula: (% alternations=Number of Alternations/14*100). Both compounds attenuated the degree of scopolamine-induced cognitive impairment, as indicated by increased percent of spontaneous alternations compared to scopolamine-only controls. Statistical analysis was accomplished via 1-way ANOVA with Dunnet's multiple comparisons post-test.

Bounds are passed on as bounds.

As a reminder, the Papp is a coefficient for how fast a substance crosses the barrier. As to `CCC(C)N1CC2N(Cc3ccc(O)cc3)CCC(=O)N2CC1=O` (centres unmarked) [Compound 9], the Potency entry in the series with HGF/MET system and in the series with MDCK cells was “−” in each case. Moreover, the Papp at 5 h, 200 uM in series [1] was above 2 ×10⁻⁶ cm/s. For the same compound, the Cytotoxicity entry in series [2] is reported as “++++ (++++ indicates non-toxic at 100 μM)”.

`CCC(C)CN1CC2N(Cc3ccc(OC(F)F)cc3)CCC(=O)N2C(CC(C)C)C1=O` (centres unmarked) [Compound 53, 1-(4-(difluoromethoxy)benzyl)-6-isobutyl-8-(2-methylbutyl)hexahydro-4H-pyrazino[1,2-a]pyrimidine-4,7(6H)-dione]: the Potency entry with HGF/MET system is given as “++ (++ indicates maximum potency at or above 10 nM)”; in the series with MDCK cells it was “+++ (+++ indicates maximum potency at or above 1 nM)”. The compound further returned a Papp at 5 h, 200 uM in series [1] below 2 ×10⁻⁶ cm/s. For the same compound, in series [2], the Cytotoxicity entry is listed as “+++ (+++ indicates non-toxic at 10 μM)”.

Take `CCC(C)CN1CC2N(C(=O)c3ccc(O)nc3)CCC(=O)N2[C@@H](C)C1=O` (some centres unmarked) [Compound 4a]: the Potency result with HGF/MET system and with MDCK cells was “+ (+ indicates maximum potency at or above 100 nM)” in each case. The same compound displayed a Papp at 5 h, 200 uM in series [1] above 10 ×10⁻⁶ cm/s. The Cytotoxicity entry in series [2] is reported as “++++ (++++ indicates non-toxic at 100 μM)”.

For the compound `C[C@]12N[C@H](Cc3ccccc31)c1ccccc12` [MK-801, reference compound], the “Protection of cell viability, statistical significance vs. insult control” value in series [3] (insult Glutamate (25 uM) 24 hours), in series [3] (insult H2O2 (1 uM) 24 hours), in series [3] (insult LPS (1 uM) 24 hours) and in series [3] (insult MPP+ (500 uM) 24 hours) was “+++ (+++=p<0.001)” in each case.

Turning to `OO` [Compound H2O2, Hydrogen peroxide, reference compound], the “Insult effect (% viability vs vehicle)” value in series [3] (1 uM) is 64.23%.

For the compound `N[C@@H](CCC(=O)O)C(=O)O` [Glutamate, glutamate, reference compound], the “Insult effect (% viability vs vehicle)” value in series [3] (25 uM) amounted to 49.55%.

Consider `C[n+]1ccc(-c2ccccc2)cc1` [MPP+, 1-methyl-4-phenylpyridinium, reference compound], for which the “Insult effect (% viability vs vehicle)” value in series [3] (500 uM) was 49.85%.

With `CN1[C@@H]2C[C@@H](OC(=O)[C@H](CO)c3ccccc3)C[C@H]1[C@@H]1O[C@@H]12` [SCO, scopolamine, reference compound], the Spontaneous alternations % in series [4] came out at 37%.

Source of the values: patent US20250041307A1, “Uses of Bicyclic Compounds for the Treatment of Diseases” (Athira Pharma, Inc., priority 2021, published 2025).
